Assay results published in publication PMC6297782, “DNA-Mediated Interferon Signature Induction by SLE Serum Occurs in Monocytes Through Two Pathways: A Mechanism to Inhibit Both Pathways” (Frontiers in Immunology, 2018).

Legend:
[1] = tested on: HMGB1-induced ISGs, primary human monocytes; assay: ISG induction by HMGB1 in monocytes (qPCR); type: cell-based; settings: HMGB1 with DWEYS or control peptide, 4 h, three independent experiments
Description: Human cells were obtained with approval of the Institutional Review Board of the Feinstein Institute for Medical Research. PBMCs were isolated from blood of healthy donors (New York Blood Center) by density centrifugation. Monocytes were enriched by negative selection using a human monocyte enrichment kit ([…] Technologies). Purity of monocytes (CD11b^+, CD14^+, LAIR-1^+) was determined to be >90% by flow cytometry (FACS Calibur, BD Biosciences, San Jose, CA, USA). Purified monocytes (2 × 10^6 cells/ml) were cultured in U-bottom 96-well plates in X-VIVO 15 serum free medium (Lonza) with the indicated reagents and harvested at 4–6 h later, or at the indicated times. […] Murine monocyte purity was determined to be >90%.
Total RNA was extracted from cells (1–2 × 10^6 cells per sample) with an RNeasy kit (Qiagen, Germantown, MD, USA) and cDNA was generated using an iScript cDNA synthesis kit (Bio-Rad, Hercules, CA, USA). qRT-PCR was performed on a Light Cycler 480 II (Roche, Indianapolis, IN, USA). […] The relative induction was calculated by 2^−ΔΔCt.
(B) Inhibition curve used for IC50 evaluation as noted in the methods section. […] (D) Indicates adjusted fluorescence intensity for three experiments. (E) Primary human monocytes were incubated with HMGB1 and with or without DWEYS or control peptide for 4 h. lSG expression was evaluated using qPCR.

[2] = tested on: human monocytes (HMGB1 internalization); assay: HMGB1 internalization by human monocytes, microscopy; type: cell-based; settings: AF-594-labeled HMGB1, human monocytes
Description: (§1) For HMGB1 or CpG internalization assays, isolated human monocytes were cultured in 8 well-chamber-slides (Nunc, LabTek, Thermo-Fisher) in X-VIVO 15 culture medium. Cells were allowed to adhere for 2 h and then washed with PBS and incubated with AlexaFluor-594 HMGB1 or FITC-CpG with or without DWEYS for 15 min. Nuclei were counterstained using DAPI. Cells were washed three times with cold PBS and then fixed with 4% PFA and mounted using Dako mounting solution (Agilnet Technologies, Santa Clara, CA, USA).
(B) Inhibition curve used for IC50 evaluation as noted in the methods section. (C,D) Human monocytes were incubated with labeled HMGB1 (red) alone (C, top panel) or HMGB1 and DWEYS (C, middle panel) or HMGB1 and control peptide (C, bottom panel) for 20 min. Cells were counterstained with DAPI and imaged using a confocal laser scanning microscope. (D) Indicates adjusted fluorescence intensity for three experiments. (E) Primary human monocytes were incubated with HMGB1 and with or without DWEYS or control peptide for 4 h. lSG expression was evaluated using qPCR.

[3] = tested on: CpG:TLR9 binding; assay: Inhibition of CpG binding to TLR9, AlphaScreen; settings: constant CpG concentration
Description: Binding of TLR9 to biotinylated CpG or the DWEYS peptide was assayed in a buffer consisting of 50 mM Tris-HCl pH 7.4, 100 mM NaCl, 1% ultrapure BSA, 0.01% Tween 20 using an amplified luminescent proximity assay with streptavidin-conjugated donor beads and nickel chelate acceptor beads (AlphaScreen; Perkin Elmer, Boston, MA, USA), as described before ([1]).
Figure 2 DWEYS inhibits the transfer of the interferon signature by SLE serum but is not a TLR9 antagonist. (A) Primary human monocytes were incubated with SLE serum with or without DWEYS or with control peptide for 4 h. lSG expression was evaluated by qPCR. […] (B) Assessment of DWEYS and CpG oligonucleotides binding to TLR9. Labeled TLR9 was incubated with varying concentrations of CpG or DWEYS for 30 min in room temperature. Binding was assessed using an AlphaScreen assay as described in the methods section. (C,D) Inhibition assay. Labeled TLR9 and constant, binding concentration of CpG were incubated with different concentrations of DWEYS or a control peptide at neutral (pH 7.4, C) or acidic (pH 6.25, D) condition. Binding was assessed using an AlphaScreen assay as noted in the methods section. Results are representative of three independent experiments. ^***p < 0.001, ns, not significant.

[4] = tested on: CpG-induced ISGs, primary human monocytes; assay: ISG induction by CpG in monocytes (qPCR); type: cell-based; settings: CpG with or without peptide, 20 min per legend, three independent experiments
[5] = tested on: primary human monocytes / SLE serum-induced ISGs; assay: ISG induction by SLE serum in healthy donor monocytes (qPCR); type: cell-based; settings: 4 h, two DWEYS concentrations, control peptide at the higher dose, mean ± SD of three independent experiments
[6] = tested on: human monocytes (CpG internalization); assay: FITC-CpG internalization by human monocytes, microscopy; type: cell-based; settings: 37°C, 15 min (legend 20 min)
Description: as §1
Non IC-bound DNA can also be internalized by binding to HMGB1, with the HMGB1-DNA complex binding to RAGE ([1]). […] We incubated monocytes from healthy donors with FITC labeled CpG. […] CpG is internalized chaperoned by HMGB1 binding through RAGE.
Figure 4 DWEYS binds HMGB1 and inhibits its binding to RAGE. (A) Monocytes were incubated with labeled CpG (red) and DWEYS or control peptide for 20 min. Cells were counterstained with DAPI prior to imaging. (B) Depicts adjusted fluorescence intensity for three experiments run. (C) Monocytes from C57BL6 wild type (WT) or RAGE^−/− mice were incubated with labeled CpG for 20 min and counterstained with DAPI prior to imaging. (D) Primary human monocytes were incubated with CpG and with or without DWEYS or a control peptide for 20 min. ISG expression was analyzed by qPCR. […]

[7] = tested on: HMGB1; assay: HMGB1 binding, surface plasmon resonance; settings: SPR Biacore T200, HMGB1 immobilized on CM5 chip, 25°C
Description: A Biacore T200 apparatus (GE Healthcare Bio-Sciences, Pittsburgh, PA, USA) was used for real-time binding interaction studies. For HMGB1 and DWEYS peptide binding analyses, HMGB1 protein was immobilized onto a CM5 series chip (GE Healthcare). The HMGB1 protein was diluted to a concentration of 20 μg/mL in 10 mM sodium acetate buffer (pH = 4.5). A 1:1 mixture of N-hydroxysuccinimide and N-ethyl-N-(dimethyaminopropyl) carbodiimide was used to activate two flow-cells of the CM5 chip. […] The sample flow-cell was injected with the diluted HMGB1 at a flow rate of 10 μL/min. The HMGB1 injection was stopped when the surface plasmon resonance reached ~600 RU. For HMGB1 and DWEYS peptide kinetics assay, DWEYS peptide were sequentially injected at a flow rate of 20 μL/min for 120 s at 25°C, the dissociation time was set for 2 min. The concentrations were 16, 31.25, 62.5, 125, 250 μM. The equilibrium dissociation constant (KD) was obtained to evaluate the binding affinity by using the BIAEvaluation 2.0 software (GE Healthcare) assuming a 1:1 binding ratio. At least 3 independent experiments were performed.

[8] = tested on: primary human monocytes; assay: DWEYS internalization into monocytes (ImageStream); type: cell-based; settings: 20 min
Description: Primary human monocytes were incubated for 20 min with biotin-tagged DWEYS peptide alone or with serum from SLE patients or healthy controls. Following incubation, cells were thoroughly washed and stained with anti-CD14 antibody (R&D Technologies, North Kingston, RI, USA) for 40 min at 4°C. Cells were then washed, fixed using 4% PFA and permeabilized using 1% Triton-X100, followed by incubation with labeled streptavidin for 40 min. Cell nuclei were counterstained with DAPI and cells were imaged using an ImageStream device (Amnis, Burlington, MA, USA).
Figure 3 DWEYS displaces DNA from immune complexes and inhibits DNA internalization into monocytes. (A) Primary human monocytes were incubated with labeled heat aggregated human lgG (hlgG, red) and either DWEYS or a blocking anti-FcRIIa antibody for 20 min. Cells were counterstained with DAPI and imaged using a laser scanning confocal microscope. (B) The graphs indicates adjusted fluorescence intensity for three experiments. (C) SLE serum was incubated with Syto 60 labeled dsDNA (5 μM), followed by DWEYS or control peptide (100 μM) for 30 min each. lgG was then isolated on protein G beads and Syto60 levels from protein G beads were quantified using LICOR scanner. OD was normalized to a standard labeled and filtered DNA. […] (D,E) Primary human monocytes were incubated with biotinylated DWEYS alone or biotinylated DWEYS and SLE serum from patients with or without anti ds DNA antibodies for 20 min. Cells were then stained for CD 14 as a membrane marker and intracellular DWEYS was tagged using fluorochrome labeled streptavidin. Intracellular DWEYS was quantified using lmageStream instrument: DWEYS fluorescence levels by flow cytometry (D) and representative ImageStream cell images (E). One representative experiment of three with similar results is shown. ^*p < 0.05; ns, not significant.

[9] = molecular target: T1, Recombinant HMGB1 (Calmodulin Binding Protein Epitope, Cbp tagged) (UniProt P09429 1-215); assay: SPR; inhibition assay, Biacore T200; sRAGE amine-coupled to a CM5 chip (~500 RU); HMGB1 (0.5 μM) with or without DWEYS 50 to 1.6 μM injected at 30 μL/min for 60 s, 25°C; PBS + 0.05 Tween 20; settings: both partners purified
T1 construct: high-mobility group box-1 protein (HMGB1), recombinant; The reagents also list 'reduced HMGB1'; also called high-mobility group box-1
T1 sequence (looked up): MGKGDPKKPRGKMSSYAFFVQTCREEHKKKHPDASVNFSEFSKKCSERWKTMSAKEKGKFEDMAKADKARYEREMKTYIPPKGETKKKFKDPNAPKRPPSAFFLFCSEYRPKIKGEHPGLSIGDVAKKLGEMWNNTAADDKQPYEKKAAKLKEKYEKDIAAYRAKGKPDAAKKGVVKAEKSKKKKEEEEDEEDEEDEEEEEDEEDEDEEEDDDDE

[10] = molecular target: T1, Recombinant HMGB1 (Calmodulin Binding …); assay: SPR; Biacore T200; HMGB1 amine-coupled to a CM5 chip (~600 RU); peptide injected at 16-250 μM, 20 μL/min, 120 s, 25°C; 1:1 binding assumed; apparent KD; settings: both partners purified

## TATAT [control peptide]
[1]
  ISG level on HMGB1 incubation: increased level of ISGs, in the presence of control peptide
[2]; 20 min, confocal microscopy
  HMGB1 internalization (effect of peptide): no inhibition of HMGB1 internalization
[3]; pH 6.25 (simulating activated endosome)
  inhibition of CpG binding to TLR9, acidic pH: neither DWEYS, nor a control peptide, used at various concentrations, inhibited the binding
[3]; pH 7.4
  inhibition of CpG binding to TLR9, neutral pH: neither DWEYS, nor a control peptide, used at various concentrations, inhibited the binding
[4]
  CpG induction of ISGs (effect of peptide): failed to inhibit ISG induction
[5]
  ISG induction by SLE serum (effect of peptide): showed an induction of all three ISGs studied
[6]
  CpG internalization (effect of peptide): no effect
[7]
  binding to immobilized HMGB1: did not bind

## biotinylated DWEYS [labeled DWEYS]
[8]; biotinylated DWEYS alone
  internalization of DWEYS, no serum: only minimal internalization
[8]; biotinylated DWEYS with SLE serum with high anti-DNA antibody titer
  internalization of DWEYS, SLE serum with high anti-DNA titer: significant intracellular internalization of DWEYS was seen
[8]; biotinylated DWEYS with SLE serum with low titers of anti-DNA antibodies
  internalization of DWEYS, SLE serum lacking anti-DNA antibodies: did not mediate DWEYS internalization
[8]; biotinylated DWEYS with serum from healthy donors
  internalization of DWEYS, healthy donor serum: only minimal internalization

B1: DWEYS peptide (peptide)
peptide: DWEYS
notes: the biotinylated form may have been used there; also called pentapeptide DWEYS; DNA mimetope; source: synthetic peptide (GenScript)
[9]
  IC50: 34.7 µM
[10]
  Kd: 185 µM

B2: high-mobility group box-1 (protein)
chain: T1 sequence (looked up)
modifications: left off: Calmodulin Binding Protein Epitope (Cbp), end not stated, state not stated
[2]
  HMGB1 internalization alone: detected in monocytes after 15–30 min in incubation
